ChEMBL document CHEMBL6074720, “Dihydrofolate reductase inhibitory potential of 1H-indole-based-meldrum linked 1H-1,2,3-triazoles as new anticancer derivatives: In-vitro and in-silico studies” (Eur J Med Chem, 2025)
The source made the active and inactive calls. No cut-off for these calls is given here.

How the values were obtained:
Dihydrofolate reductase = target: T1, Dihydrofolate reductase (Homo sapiens, UniProt P00374); experiment: (§1) Inhibition of DHFR (unknown origin) using dihydro folic acid as substrate preincubated with compound for 5 mins followed by substrate addition and measured after 30 mins in presence of NADPH by absorbance based assay
T1 sequence (P00374 whole entry): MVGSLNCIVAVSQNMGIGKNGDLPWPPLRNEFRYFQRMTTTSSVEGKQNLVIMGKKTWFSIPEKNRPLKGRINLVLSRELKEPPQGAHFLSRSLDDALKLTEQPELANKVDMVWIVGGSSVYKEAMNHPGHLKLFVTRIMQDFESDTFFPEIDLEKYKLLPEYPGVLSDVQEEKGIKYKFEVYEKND

[1] = target: T2, Dihydrofolate reductase (Homo sapiens) (UniProt P00374); experiment: Inhibition of DHFR (unknown origin) using dihydro folic acid as substrate at 0.5 mM preincubated with compound for 5 mins followed by substrate addition and measured after 30 mins in presence of NADPH by absorbance based assay relative to control; conditions: time 35.0 min
T2 sequence (whole entry): T1 sequence (P00374 whole entry)

[2] = target: T2, Dihydrofolate reductase (Homo sapiens); experiment: as §1; conditions: time 35.0 min

| Compound | IC50 (Dihydrofolate reductase) | inhibition [1] | inhibition [2] |
| --- | --- | --- | --- |
| CC1(C)OC(=O)C(Cc2cn(-c3ccccc3)nn2)(Cc2cn(CCC#N)c3ccccc23)C(=O)O1 | 27.6 µM | 87.3% | – |
| Cc1ccccc1-n1cc(CC2(Cc3cn(CCC#N)c4ccccc34)C(=O)OC(C)(C)OC2=O)nn1 | 18.3 µM | 89.4% | – |
| COc1ccc(OC(=O)C(Cc2cn(-c3ccc(F)cc3)nn2)Cc2cn(CCC#N)c3ccccc23)cc1 (configuration not stated) | 12.8 µM | 91.3% | – |
| CC1(C)OC(=O)C(Cc2cn(-c3ccc(F)cc3)nn2)(Cc2cn(CCC#N)c3ccccc23)C(=O)O1 | 4.78 µM | 92.5% | – |
| CC1(C)OC(=O)C(Cc2cn(-c3ccc(Br)cc3)nn2)(Cc2cn(Cc3ccc(C#N)cc3)c3ccccc23)C(=O)O1 | 9.1 µM | 91.5% | – |
| Cc1ccccc1-n1cc(CC2(Cc3c[nH]c4ccccc34)C(=O)OC(C)(C)OC2=O)nn1 | 19.6 µM | 90.7% | – |
| CC1(C)OC(=O)C(Cc2cn(-c3ccc(C(F)(F)F)cc3)nn2)(Cc2c[nH]c3ccccc23)C(=O)O1 | 10.1 µM | 91.3% | – |
| COc1ccc(OC(=O)C(Cc2cn(-c3ccc(F)cc3)nn2)Cc2cn(Cc3ccc(C#N)cc3)c3ccccc23)cc1 (configuration not stated) | 16.1 µM | 90.9% | – |
| CC1(C)OC(=O)C(Cc2cn(-c3ccc(C(F)(F)F)cc3)nn2)(Cc2cn(Cc3ccc(C#N)cc3)c3ccccc23)C(=O)O1 | 8.71 µM | 91.8% | – |
| CC1(C)OC(=O)C(Cc2c[nH]c3ccccc23)C(=O)O1 | – | 36.2% | inactive |
| COc1ccc(-n2cc(CC3(Cc4c[nH]c5ccccc45)C(=O)OC(C)(C)OC3=O)nn2)cc1 | 4.36 µM | 90.9% | – |
| CC1(C)OC(=O)C(Cc2cn(Cc3ccc(C#N)cc3)c3ccccc23)C(=O)O1 | – | 25.5% | inactive |
| CC1(C)OC(=O)C(=Cc2cn(CCC#N)c3ccccc23)C(=O)O1 | – | 35.3% | inactive |
| COc1ccc(-n2cc(CC3(Cc4cn(Cc5ccc(C#N)cc5)c5ccccc45)C(=O)OC(C)(C)OC3=O)nn2)cc1 | 3.48 µM | 92.3% | – |
| N#CCCn1cc(C=O)c2ccccc21 | – | 24.8% | inactive |
| C#CCC1(Cc2cn(CCC#N)c3ccccc23)C(=O)OC(C)(C)OC1=O | – | 46.2% | inactive |

| Compound | IC50 (Dihydrofolate reductase) | inhibition [1] | inhibition [2] |
| --- | --- | --- | --- |
| C#CCC1(Cc2cn(Cc3ccc(C#N)cc3)c3ccccc23)C(=O)OC(C)(C)OC1=O | – | 41.4% | inactive |
| CC1(C)OC(=O)C(=Cc2cn(Cc3ccc(C#N)cc3)c3ccccc23)C(=O)O1 | – | 30.2% | inactive |
| CC1(C)OC(=O)C(Cc2cn(CCC#N)c3ccccc23)C(=O)O1 | – | 38.9% | inactive |
| CC1(C)OC(=O)C(Cc2cn(-c3ccc(Br)cc3)nn2)(Cc2cn(CCC#N)c3ccccc23)C(=O)O1 | 11.3 µM | 91.6% | – |
| Cc1ccccc1-n1cc(CC2(Cc3cn(Cc4ccc(C#N)cc4)c4ccccc34)C(=O)OC(C)(C)OC2=O)nn1 | 14.5 µM | 90.6% | – |
| CC1(C)OC(=O)C(Cc2cn(-c3ccccc3)nn2)(Cc2cn(Cc3ccc(C#N)cc3)c3ccccc23)C(=O)O1 | 30.4 µM | 86.2% | – |
| COc1ccc(-n2cc(CC3(Cc4cn(CCC#N)c5ccccc45)C(=O)OC(C)(C)OC3=O)nn2)cc1 | 5.83 µM | 91.8% | – |
| COc1ccc(OC(=O)C(Cc2cn(-c3ccc(Br)cc3)nn2)Cc2cn(Cc3ccc(C#N)cc3)c3ccccc23)cc1 (configuration not stated) | 25.3 µM | 86.7% | – |
| CC1(C)OC(=O)C(Cc2cn(-c3ccccc3)nn2)(Cc2c[nH]c3ccccc23)C(=O)O1 | 23.8 µM | 89.7% | – |
| CC1(C)OC(=O)C(Cc2cn(-c3ccc(F)cc3)nn2)(Cc2c[nH]c3ccccc23)C(=O)O1 | 5.1 µM | 91.7% | – |
| C#CCC1(Cc2c[nH]c3ccccc23)C(=O)OC(C)(C)OC1=O | – | 40.2% | inactive |
| CC1(C)OC(=O)C(Cc2cn(-c3ccc(C(F)(F)F)cc3)nn2)(Cc2cn(CCC#N)c3ccccc23)C(=O)O1 | 13.9 µM | 90.5% | – |
| CC1(C)OC(=O)C(Cc2cn(-c3ccc(F)cc3)nn2)(Cc2cn(Cc3ccc(C#N)cc3)c3ccccc23)C(=O)O1 | 6.15 µM | 91.7% | – |
| N#Cc1ccc(Cn2cc(C=O)c3ccccc32)cc1 | – | 25.2% | inactive |
| CC1(C)OC(=O)C(Cc2cn(-c3ccc(Br)cc3)nn2)(Cc2c[nH]c3ccccc23)C(=O)O1 | 9.57 µM | 91.6% | – |
